The values that follow come from patent US8377943B2, “2,4-diaminopyrimidine derivates as PTK2-inhibitors for the treatment of abnormal cell growth” (Boehringer Ingelheim International GmbH, priority 2008, dated 2013).

The target of one assay is T1, PTK2 (Homo sapiens, UniProt Q05397).
T1 construct: purchased Invitrogen PV3832
Nature of the assay: PTK2 Enzyme Test (DELFIA assay, poly-Glu-Tyr substrate). Type of assay: biochemical. Conditions: active PTK2 enzyme, 50 μM ATP in ATP Mix, 1 h pre-incubation. How it is done:
This test uses active PTK2 enzyme (Invitrogen Code PV3832) and poly-Glu-Tyr (4:1, Sigma P-0275) as the kinase substrate. The kinase activity is detected by means of the phosphorylation of the substrate in a DELFIA™ assay. The phosphorylated substrate is detected with the Europium-labelled phosphotyrosine antibody PY20 (Perkin Elmer, No.: AD0038).
In order to determine concentration-activity curves with PTK2-inhibitors the compounds are serially diluted in 10% DMSO/H2O and 10 μL of each dilution are dispensed per well in a 96-well microtitre plate (clear U-shaped base plate, Greiner No. 650101) (the inhibitors are tested in duplicates) and mixed with 10 μL/well of PTK2 kinase (0.01 μg/well). PTK2 kinase is diluted accordingly beforehand with kinase dilution buffer (20 mM TRIS/HCl pH 7.5, 0.1 mM EDTA, 0.1 mM EGTA, 0.286 mM sodium orthovanadate, 10% glycerol with the addition of freshly prepared BSA (fraction V 1 mg/mL) and DTT (1 mM)). The test compound and the PTK2 kinase are pre-incubated for 1 h at RT and shaken at 500 rpm. Then 20 μL ATP Mix (30 mM TRIS/HCl pH 7.5, 0.02% Brij, 0.2 mM sodium orthovanadate, 10 mM magnesium acetate, 0.1 mM EGTA, 1× Phosphatase Inhibitor Cocktail 1 (Sigma, No.: P2850), 50 μM ATP (Sigma, No.: A3377; 15 mM stock solution)) are added. The reaction is started by the addition of 10 μL/well of poly (Glu,Tyr) substrate (25 μg/well poly (Glu,Tyr), 0.05 μg/well biotinylated poly (Glu,Tyr) dissolved in 250 mM TRIS/HCl pH 7.5, 9 mM DTT)—the final concentration of DMSO is 2%. After 1 h kinase reaction (the plates are shaken at 500 rpm), the reaction is stopped by the addition of 12 μL/well of 100 mM EDTA, pH 8. And shaken for a further 5 min at RT (500 U/min).
55 μL of the reaction mixture are transferred into a streptavidin plate (Strepta Well High Bind (transparent, 96-well) made by Roche, No.: 11989685001) and incubated for 1 h at RT (shaking at 500 rpm). Then the microtitre plate is washed three times with 200 μL/well D-PBS (Invitrogen, No.:14190). 100 μL of 1:2000 diluted DELFIA Eu-N1 Anti-Phosphotyrosine PY20 antibody (Perkin Elmer, No.: AD0038, 1:2000 diluted in DELFIA test buffer (Perkin Elmer, No.: 1244-111)) is then added and it is incubated for 1 h at RT (shaking at 500 rpm). Then the plate is washed three times with 200 μL/well DELFIA washing buffer (Perkin Elmer, No.: 1244-114), 200 μL/well strengthening solution (Perkin Elmer, No.: 1244-105) is added and the whole is incubated for 10 min at RT (shaking at 300 rpm).
The time-delayed europium fluorescence is then measured in a microtitre plate reader (Victor, Perkin Elmer). The positive control consists of wells that contain solvent (2% DMSO in test buffer) and display uninhibited kinase activity. Wells that contain test buffer instead of enzyme act as a control for the background kinase activity.
The IC50 values are determined from concentration-activity analyses by iterative calculation using a sigmoidal curve analysis algorithm (FIFTY, based on GraphPAD Prism Version 3.03) with a variable Hill coefficient.

For assay [1], the target named is T2, PTK2-phosphorylation at tyrosine 397 (pY397) (Homo sapiens, UniProt Q05397).
T2 construct: endogenous in cells; host or cells: PC-3 (ATCC CRL-1435)
The assay can be described thus: Phospho-PTK2 (pY397) Assay in PC-3 cells. To be noted: PC-3 prostate carcinoma cells, 2 h incubation; read-out: PC3pPTK2 Y397 EC50. Type of assay: cell-based. As to the method:
This cellular test is used to determine the influence of PTK2-inhibitors on the state of the PTK2-phosphorylation at tyrosine 397 (pY397).
PC-3 cells (prostate carcinoma, ATCC CRL-1435) are grown in cell culture flasks (175 cm^2) with F12 Kaighn's Medium (Gibco, No.: 21127) with the addition of 10% foetal calf serum (Invitrogen, No.: 16000-044). The cultures are incubated in the incubator at 37° C. and 5% CO2 and run twice a week.
For the test, 2×10^4 cells pro well/[…] are plated out in 96-well microtitre plates (Costar, No.: 3598) and incubated overnight in the incubator at 37° C. and 5% CO2. The test compounds (10 μL from serial dilution) are added the next day. The concentration of the test compounds usually covers a range of 50 μM and 0.8 nM. The test compounds (stock solution: 10 mM in 100% DMSO) are diluted in medium/medium 10% DMSO such that the final concentration is 1% DMSO. The cells are then incubated in the incubator at 37° C. and 5% CO2 for 2 h. Then the culture supernatant is removed and the cells are fixed with 150 μL 4% formaldehyde in D-PBS for 20 min at RT. The cell lawn is washed five times with 200 μL 0.1% Triton X-100 in D-PBS for 5 min in each case and then incubated for 90 min with blocking buffer (5% skimmed milk powder (Maresi Fixmilch) in TBST (25 mM Tris/HCl, pH 8.0, 150 mM NaCl, 0.05% Tween 20). The blocking buffer is replaced by 50 μL of the first antibody anti-phospho PTK2 [pY397] rabbit monoclonal (Invitrogen/Biosource, No.: 44-625G), which is diluted 1:200 in blocking buffer. For control purposes, alternatively a PTK2 [total] antibody (clone 4.47 mouse monoclonal, Upstate, No.: 05-537), diluted 1:400 in blocking buffer is used. This incubation is carried out at 4° C. overnight. Then the cell lawn is washed five times with 100 μL of 0.1% Tween in D-PBS for 5 min in each case and 50 μL/well of second antibody are added. In order to detect bound phospho-PTK2 [pY397] antibody a goat-anti-rabbit antibody is used which is coupled with horseradish peroxidase (Dako, No.: P0448; 1:500 dilution in blocking buffer). In order to detect bound PTK2 [total]-antibodies a rabbit-anti-mouse antibody is used, which is also coupled with horseradish peroxidase (Dako, No.: PO161; 1:1000 dilution in blocking buffer). This incubation is carried out for 1 h at RT with gentle shaking. The cell lawn is then again washed five times with 100 μL of 0.1% Tween in D-PBS for 5 min in each case. […] The EC50 values are determined from concentration-activity analyses by iterative calculation with the aid of a sigmoidal curve analysis algorithm (FIFTY, based on GraphPAD Prism Version 3.03) with a variable Hill coefficient.

T1 sequence (Q05397 whole entry): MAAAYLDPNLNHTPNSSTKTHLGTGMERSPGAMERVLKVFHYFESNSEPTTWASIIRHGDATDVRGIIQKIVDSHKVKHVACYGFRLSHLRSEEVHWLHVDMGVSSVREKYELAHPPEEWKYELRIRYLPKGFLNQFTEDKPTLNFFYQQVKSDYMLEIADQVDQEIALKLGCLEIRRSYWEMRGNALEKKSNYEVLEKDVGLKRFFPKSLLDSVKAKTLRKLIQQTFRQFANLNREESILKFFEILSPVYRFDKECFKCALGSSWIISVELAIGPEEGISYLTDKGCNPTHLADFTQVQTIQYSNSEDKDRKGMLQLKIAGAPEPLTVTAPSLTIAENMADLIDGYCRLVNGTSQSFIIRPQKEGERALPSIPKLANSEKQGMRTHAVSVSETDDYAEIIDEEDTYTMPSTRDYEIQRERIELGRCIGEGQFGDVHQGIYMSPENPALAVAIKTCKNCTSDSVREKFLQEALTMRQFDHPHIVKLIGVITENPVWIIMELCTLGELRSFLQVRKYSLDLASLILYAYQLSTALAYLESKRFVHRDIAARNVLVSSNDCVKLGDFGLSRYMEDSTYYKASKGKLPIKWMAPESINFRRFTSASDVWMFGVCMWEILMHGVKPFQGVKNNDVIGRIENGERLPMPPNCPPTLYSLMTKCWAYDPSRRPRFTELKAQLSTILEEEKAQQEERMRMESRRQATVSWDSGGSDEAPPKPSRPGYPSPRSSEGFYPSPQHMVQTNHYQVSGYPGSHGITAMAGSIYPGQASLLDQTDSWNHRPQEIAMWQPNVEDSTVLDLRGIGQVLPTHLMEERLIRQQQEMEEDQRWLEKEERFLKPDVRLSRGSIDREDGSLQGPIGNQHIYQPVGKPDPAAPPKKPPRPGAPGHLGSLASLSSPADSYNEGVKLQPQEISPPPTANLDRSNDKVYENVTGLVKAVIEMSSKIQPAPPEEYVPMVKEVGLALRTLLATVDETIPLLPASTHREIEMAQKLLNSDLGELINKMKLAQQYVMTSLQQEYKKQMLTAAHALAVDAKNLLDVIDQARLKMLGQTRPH
T2 sequence (Q05397 whole entry): as above

Turning to `COc1cc(C(=O)NC2CCN(C3CCOCC3)CC2)ccc1Nc1ncc(C(F)(F)F)c(NCc2ccc(C)cc2N(C)S(C)(=O)=O)n1` [Example 44], the IC50 against PTK2 turned out to be 2 nM. The concentration for a half-maximal effect (EC50) in assay [1] is 0.42 nM.

As to `CCN1CCC[C@H]1CNC(=O)c1ccc(Nc2ncc(C(F)(F)F)c(NCc3ccc(C)cc3N(C)S(C)(=O)=O)n2)c(OC)c1` [Example 45], the IC50 on PTK2 was found to be 3 nM. For the same molecule, the EC50 in assay [1] turned out to be 0.44 nM.

Regarding `COc1cc(C(=O)N[C@H]2CCCN(C3CCCC3)C2)ccc1Nc1ncc(C(F)(F)F)c(NCc2ccc(C)cc2N(C)S(C)(=O)=O)n1` [Example 47], at PTK2, half-maximal inhibition (IC50) required 6 nM. Further, in assay [1], the EC50 came out at 0.5 nM.

With `COc1cc(C(=O)NC2CCC(NC(C)=O)CC2)ccc1Nc1ncc(C(F)(F)F)c(NCc2ccc(C)cc2N(C)S(C)(=O)=O)n1` (stereo not shown) [Example 48], the half-inhibitory concentration (IC50) against PTK2 came to 4 nM. In assay [1], the EC50 stood at 0.51 nM.

Take `COc1cc(C(=O)NC2CCN3CCCC3C2)ccc1Nc1ncc(C(F)(F)F)c(NCc2ccc(C)cc2N(C)S(C)(=O)=O)n1` (stereo not shown) [Example 49]: on PTK2, half-maximal inhibition (IC50) required 4 nM. For the same molecule, the EC50 in assay [1] amounted to 0.51 nM.

For the molecule `CCc1cc(C(=O)NC2CCN(C)CC2)ccc1Nc1ncc(C(F)(F)F)c(NCc2ccc(C)cc2N(C)S(C)(=O)=O)n1` [Example 50], the half-maximal inhibitory concentration (IC50) against PTK2 came to 2 nM. Also, the concentration for a half-maximal effect (EC50) in assay [1] was 0.52 nM.

`COc1cc(C(=O)NC2CCC(N(C)C)CC2)ccc1Nc1ncc(C(F)(F)F)c(NCc2ccc(C)cc2N(C)S(C)(=O)=O)n1` (stereo not shown) [Example 51] returned an IC50 against PTK2 of 1 nM. In assay [1], the EC50 came out at 0.53 nM.

At PTK2, `COc1cc(C(=O)NC2CCN(C)CC2)ccc1Nc1ncc(C(F)(F)F)c(NCc2ccc(F)cc2N(C)S(C)(=O)=O)n1` [Example 52] displayed a half-maximal inhibitory concentration (IC50) of 1 nM. Besides, in assay [1], the EC50 amounted to 0.54 nM.

As for `COc1cc(C(=O)N[C@H]2CCCN(C3CCOCC3)C2)ccc1Nc1ncc(C(F)(F)F)c(NCc2ccc(C)cc2N(C)S(C)(=O)=O)n1` [Example 53], half-maximal inhibition against PTK2 (IC50) required 5 nM. Also, the 50% effective concentration (EC50) in assay [1] is 0.54 nM.

On to `CNC(=O)c1cc(OC)c(Nc2ncc(C(F)(F)F)c(NCc3ccc(C)cc3N(C)S(C)(=O)=O)n2)cc1C` [Example 54], for which, at PTK2, the IC50 turned out to be 3 nM. In addition, the half-maximal effective concentration (EC50) in assay [1] is 0.55 nM.

At PTK2, `COc1cc(C(=O)NC2CCN(c3ccccc3)CC2)ccc1Nc1ncc(C(F)(F)F)c(NCc2ccc(C)cc2N(C)S(C)(=O)=O)n1` [Example 55] returned a half-maximal inhibitory concentration (IC50) of 11 nM. Also, the EC50 in assay [1] turned out to be 0.56 nM.

At PTK2, `COc1cc(CN2CCCC2)ccc1Nc1ncc(C(F)(F)F)c(NCc2ccc(C)cc2N(C)S(C)(=O)=O)n1` [Example 56] came in with a concentration for half-maximal inhibition (IC50) of 2 nM. Also, the concentration giving a half-maximal response (EC50) in assay [1] turned out to be 0.56 nM.

Turning to `COc1ccc(CNc2nc(Nc3ccc(C(=O)N[C@H]4CC[C@H](N5CCOCC5)CC4)cc3OC)ncc2C(F)(F)F)c(N(C)S(C)(=O)=O)c1` [Example 57], the IC50 on PTK2 amounted to 2 nM. Moreover, the EC50 in assay [1] amounted to 0.57 nM.

Molecule `COc1cc(C(=O)N[C@@H]2CCN(C)C2)c(Cl)cc1Nc1ncc(C(F)(F)F)c(NCc2ccc(C)cc2N(C)S(C)(=O)=O)n1` [Example 58] came in with an IC50 against PTK2 of 3 nM. The EC50 in assay [1] was 0.59 nM.

As to `COc1cc(CNC2CCN(C)CC2)ccc1Nc1ncc(C(F)(F)F)c(NCc2ccc(C)cc2N(C)S(C)(=O)=O)n1` [Example 59], 3 nM corresponded to half-maximal inhibition against PTK2 (IC50). The half-maximal effective concentration (EC50) in assay [1] worked out at 0.59 nM.

`COc1cc(C(=O)NC2CCOCC2)ccc1Nc1ncc(C(F)(F)F)c(NCc2ccc(C)cc2N(C)S(C)(=O)=O)n1` [Example 60]: the IC50 against PTK2 came to 4 nM. The concentration for a half-maximal effect (EC50) in assay [1] was found to be 0.6 nM.

As for `COc1cc(CNC2CCC2)ccc1Nc1ncc(C(F)(F)F)c(NCc2ccc(C)cc2N(C)S(C)(=O)=O)n1` [Example 61], half-maximal inhibition on PTK2 (IC50) required 2 nM. Besides, the EC50 in assay [1] worked out at 0.6 nM.

As to `COc1cc(CNC2CCCC2)ccc1Nc1ncc(C(F)(F)F)c(NCc2ccc(C)cc2N(C)S(C)(=O)=O)n1` [Example 63], on PTK2, the IC50 is 3 nM. The EC50 in assay [1] came to 0.63 nM.

With `COc1cc(C(=O)NC2CCOC2)ccc1Nc1ncc(C(F)(F)F)c(NCc2ccc(C)cc2N(C)S(C)(=O)=O)n1` (stereo not shown) [Example 64], at PTK2, it took 3 nM to reach half-maximal inhibition (IC50). For the same molecule, in assay [1], the EC50 stood at 0.67 nM.

As for `COc1cc(C(=O)N[C@H]2CC[C@@H]3[C@@H](CCN3C)C2)ccc1Nc1ncc(C(F)(F)F)c(NCc2ccc(C)cc2N(C)S(C)(=O)=O)n1` [Example 65], at PTK2, the concentration for half-maximal inhibition (IC50) was 4 nM. The EC50 in assay [1] worked out at 0.67 nM.

With `CCNCc1ccc(Nc2ncc(C(F)(F)F)c(NCc3ccc(C)cc3N(C)S(C)(=O)=O)n2)c(OC)c1` [Example 66], at PTK2, the midpoint of inhibition, the IC50, lay at 1 nM. In addition, the concentration for a half-maximal effect (EC50) in assay [1] amounted to 0.7 nM.

For `COc1cc(CNCc2ccccc2)ccc1Nc1ncc(C(F)(F)F)c(NCc2ccc(C)cc2N(C)S(C)(=O)=O)n1` [Example 67], the IC50 against PTK2 turned out to be 7 nM. For the same molecule, the EC50 in assay [1] came out at 0.7 nM.

In turn, `COc1cc(NC(C)=O)c(C)cc1Nc1ncc(C(F)(F)F)c(NCc2ccc(C)cc2N(C)S(C)(=O)=O)n1` [Example 68] displayed an IC50 at PTK2 of 2 nM. Also, the EC50 in assay [1] came to 0.72 nM.

`CNC(=O)c1ccc(Nc2ncc(C(F)(F)F)c(NCc3ccc(C)cc3N(C)S(C)(=O)=O)n2)c(OC)c1` [Example 69] registered an IC50 against PTK2 of 1 nM. Also, in assay [1], the EC50 came to 0.74 nM.

At PTK2, `COc1cc(C(=O)NCC2CCCO2)ccc1Nc1ncc(C(F)(F)F)c(NCc2ccc(C)cc2N(C)S(C)(=O)=O)n1` (stereo not shown) [Example 70] yielded an IC50 of 4 nM. Besides, in assay [1], the EC50 came to 0.74 nM.

Take `COc1cc(C(=O)NC2CC(N3CCOCC3)C2)ccc1Nc1ncc(C(F)(F)F)c(NCc2ccc(C)cc2N(C)S(C)(=O)=O)n1` (stereo not shown) [Example 71]: the IC50 on PTK2 came out at 3 nM. In assay [1], the EC50 stood at 0.74 nM.

In general, IC50 refers to the point on the concentration scale where inhibition reaches its midpoint. Low values mean greater potency in that assay, high ones weaker potency in that assay. The EC50 is the concentration needed to bring the measured effect to its halfway point.
